Results from US20250255867A1 (Kadmon Corporation, LLC, priority 2022, published 2025).

Method: All responses were assessed by the investigators.
Reported Adverse Events. […] All-cause mortality data collected during the study were assessed for all enrolled participants. Disease progression related death was not reported as AE.
Number of Participants With Treatment-emergent Adverse Events (TEAEs), and Treatment-emergent Serious Adverse Events (TESAEs). […] TEAEs included both SAEs and non-SAEs. […] Analysis was performed on safety population which included all participants who received at least 1 dose of study medication.

CC(C)NC(=O)COc1cccc(-c2nc(Nc3ccc4[nH]ncc4c3)c3ccccc3n2)c1 [Belumosudil, 2-{3-[4-(1H-indazol-5-ylamino)-2-quinazolinyl]phenoxy}-N-(propan-2-yl) acetamide]
Urinary retention: # Events (Cohort 2 200 mg BID): 2 | Urinary retention: Affected/At Risk (Cohort 2 200 mg BID): 1/16 | Urinary retention: Affected/At Risk (%) (Cohort 2 200 mg BID): (6.25%) | Urinary tract infection: # Events (Cohort 2 200 mg BID): 2 | Urinary tract infection: Affected/At Risk (Cohort 2 200 mg BID): 2/16 | Urinary tract infection: Affected/At Risk (%) (Cohort 2 200 mg BID): (12.5%) | Urinary tract pain: # Events (Cohort 2 200 mg BID): 1 | Urinary tract pain: Affected/At Risk (Cohort 2 200 mg BID): 1/16 | Urinary tract pain: Affected/At Risk (%) (Cohort 2 200 mg BID): (6.25%) | Urine output decreased: # Events (Cohort 2 200 mg BID): 1 | Urine output decreased: Affected/At Risk (Cohort 2 200 mg BID): 1/16 | Urine output decreased: Affected/At Risk (%) (Cohort 2 200 mg BID): (6.25%) | Vascular access complication: # Events (Cohort 2 200 mg BID): 1 | Vascular access complication: Affected/At Risk (Cohort 2 200 mg BID): 1/16 | Vascular access complication: Affected/At Risk (%) (Cohort 2 200 mg BID): (6.25%) | Vertigo: # Events (Cohort 2 200 mg BID): 0 | Vertigo: Affected/At Risk (Cohort 2 200 mg BID): 0/16 | Vertigo: Affected/At Risk (%) (Cohort 2 200 mg BID): (0%) | Vision blurred: # Events (Cohort 2 200 mg BID): 2 | Vision blurred: Affected/At Risk (Cohort 2 200 mg BID): 2/16 | Vision blurred: Affected/At Risk (%) (Cohort 2 200 mg BID): (12.5%) | Vomiting: # Events (Cohort 2 200 mg BID): 3 | Vomiting: Affected/At Risk (Cohort 2 200 mg BID): 3/16 | Vomiting: Affected/At Risk (%) (Cohort 2 200 mg BID): (18.75%) | Weight decreased: # Events (Cohort 2 200 mg BID): 0 | Weight decreased: Affected/At Risk (Cohort 2 200 mg BID): 0/16 | Weight decreased: Affected/At Risk (%) (Cohort 2 200 mg BID): (0%) | Weight increased: # Events (Cohort 2 200 mg BID): 2 | Weight increased: Affected/At Risk (Cohort 2 200 mg BID): 1/16 | Weight increased: Affected/At Risk (%) (Cohort 2 200 mg BID): (6.25%) | White blood cell count decreased: # Events (Cohort 2 200 mg BID): 0 | White blood cell count decreased: Affected/At Risk (Cohort 2 200 mg BID): 0/16 | White blood cell count decreased: Affected/At Risk (%) (Cohort 2 200 mg BID): (0%) | ALT/AST increased all grade, No. (Cohort 2 200 mg BID n=16): 5 | ALT/AST increased grade ≥3, No. (Cohort 2 200 mg BID n=16): 2 | Anemia grade ≥3, No. (Cohort 2 200 mg BID n=16): 1 | Any AE, No. of patients (Cohort 2 200 mg BID n=16): 16 | Cough all grade, No. (Cohort 2 200 mg BID n=16): 4 | Death, No. (Cohort 2 200 mg BID n=16): 0 | Diarrhea all grade, No. (Cohort 2 200 mg BID n=16): 5 | Drug-related AE, No. (Cohort 2 200 mg BID n=16): 8 | Drug-related SAE, No. (Cohort 2 200 mg BID n=16): 0 | Dyspnea all grade, No. (Cohort 2 200 mg BID n=16): 6 | Dyspnea grade ≥3, No. (Cohort 2 200 mg BID n=16): 2 | Fatigue all grade, No. (Cohort 2 200 mg BID n=16): 3 | Grade ≥3 AE, No. (Cohort 2 200 mg BID n=16): 10 | Headache all grade, No. (Cohort 2 200 mg BID n=16): 3 | Hyperglycemia grade ≥3, No. (Cohort 2 200 mg BID n=16): 0 | Hypertension all grade, No. (Cohort 2 200 mg BID n=16): 2 | Hypoxia grade ≥3, No. (Cohort 2 200 mg BID n=16): 1 | Lung infection or pneumonia grade ≥3, No. (Cohort 2 200 mg BID n=16): 2 | Nausea all grade, No. (Cohort 2 200 mg BID n=16): 4 | Peripheral edema all grade, No. (Cohort 2 200 mg BID n=16): 4 | SAE, No. (Cohort 2 200 mg BID n=16): 6 | URI all grade, No. (Cohort 2 200 mg BID n=16): 9 | Patients with relative dose intensity >95% (Cohort 3): 71% | Abdominal distension: # Events (Cohort 3 400 mg QD): 1 | Abdominal distension: Affected/At Risk (Cohort 3 400 mg QD): 1/21 | Abdominal distension: Affected/At Risk (%) (Cohort 3 400 mg QD): (4.76%) | Abdominal pain upper: # Events (Cohort 3 400 mg QD): 0 | Abdominal pain upper: Affected/At Risk (Cohort 3 400 mg QD): 0/21 | Abdominal pain upper: Affected/At Risk (%) (Cohort 3 400 mg QD): (0%) | Abdominal pain: # Events (Cohort 3 400 mg QD): 6 | Abdominal pain: Affected/At Risk (Cohort 3 400 mg QD): 4/21 | Abdominal pain: Affected/At Risk (%) (Cohort 3 400 mg QD): (19.05%) | Actinic keratosis: # Events (Cohort 3 400 mg QD): 1 | Actinic keratosis: Affected/At Risk (Cohort 3 400 mg QD): 1/21 | Actinic keratosis: Affected/At Risk (%) (Cohort 3 400 mg QD): (4.76%) | Acute kidney injury: # Events (Cohort 3 400 mg QD): 6 | Acute kidney injury: Affected/At Risk (Cohort 3 400 mg QD): 2/21 | Acute kidney injury: Affected/At Risk (%) (Cohort 3 400 mg QD): (9.52%) | Acute respiratory distress syndrome: # Events (Cohort 3 400 mg QD): 0 | Acute respiratory distress syndrome: Affected/At Risk (Cohort 3 400 mg QD): 0/21 | Acute respiratory distress syndrome: Affected/At Risk (%) (Cohort 3 400 mg QD): (0%) | Adrenal insufficiency: # Events (Cohort 3 400 mg QD): 0 | Adrenal insufficiency: Affected/At Risk (Cohort 3 400 mg QD): 0/21 | Adrenal insufficiency: Affected/At Risk (%) (Cohort 3 400 mg QD): (0%) | Alanine aminotransferase increased: # Events (Cohort 3 400 mg QD): 2 | Alanine aminotransferase increased: Affected/At Risk (Cohort 3 400 mg QD): 2/21 | Alanine aminotransferase increased: Affected/At Risk (%) (Cohort 3 400 mg QD): (9.52%) | Anaemia: # Events (Cohort 3 400 mg QD): 0 | Anaemia: Affected/At Risk (Cohort 3 400 mg QD): 0/21 | Anaemia: Affected/At Risk (%) (Cohort 3 400 mg QD): (0%) | Anal incontinence: # Events (Cohort 3 400 mg QD): 0 | Anal incontinence: Affected/At Risk (Cohort 3 400 mg QD): 0/21 | Anal incontinence: Affected/At Risk (%) (Cohort 3 400 mg QD): (0%) | Anxiety: # Events (Cohort 3 400 mg QD): 3 | Anxiety: Affected/At Risk (Cohort 3 400 mg QD): 3/21 | Anxiety: Affected/At Risk (%) (Cohort 3 400 mg QD): (14.29%) | Arthralgia: # Events (Cohort 3 400 mg QD): 6 | Arthralgia: Affected/At Risk (Cohort 3 400 mg QD): 5/21 | Arthralgia: Affected/At Risk (%) (Cohort 3 400 mg QD): (23.81%) | Aspartate aminotransferase increased: # Events (Cohort 3 400 mg QD): 1 | Aspartate aminotransferase increased: Affected/At Risk (Cohort 3 400 mg QD): 1/21 | Aspartate aminotransferase increased: Affected/At Risk (%) (Cohort 3 400 mg QD): (4.76%) | Asthenia: # Events (Cohort 3 400 mg QD): 0 | Asthenia: Affected/At Risk (Cohort 3 400 mg QD): 0/21 | Asthenia: Affected/At Risk (%) (Cohort 3 400 mg QD): (0%) | Atelectasis: # Events (Cohort 3 400 mg QD): 0 | Atelectasis: Affected/At Risk (Cohort 3 400 mg QD): 0/21 | Atelectasis: Affected/At Risk (%) (Cohort 3 400 mg QD): (0%) | Back pain: # Events (Cohort 3 400 mg QD): 1 | Back pain: Affected/At Risk (Cohort 3 400 mg QD): 1/21 | Back pain: Affected/At Risk (%) (Cohort 3 400 mg QD): (4.76%) | Balance disorder: # Events (Cohort 3 400 mg QD): 0 | Balance disorder: Affected/At Risk (Cohort 3 400 mg QD): 0/21 | Balance disorder: Affected/At Risk (%) (Cohort 3 400 mg QD): (0%) | Basal cell carcinoma: # Events (Cohort 3 400 mg QD): 0 | Basal cell carcinoma: Affected/At Risk (Cohort 3 400 mg QD): 0/21 | Basal cell carcinoma: Affected/At Risk (%) (Cohort 3 400 mg QD): (0%) | Benign prostatic hyperplasia: # Events (Cohort 3 400 mg QD): 0 | Benign prostatic hyperplasia: Affected/At Risk (Cohort 3 400 mg QD): 0/21 | Benign prostatic hyperplasia: Affected/At Risk (%) (Cohort 3 400 mg QD): (0%) | Blepharitis: # Events (Cohort 3 400 mg QD): 2 | Blepharitis: Affected/At Risk (Cohort 3 400 mg QD): 1/21 | Blepharitis: Affected/At Risk (%) (Cohort 3 400 mg QD): (4.76%) | Blister: # Events (Cohort 3 400 mg QD): 1 | Blister: Affected/At Risk (Cohort 3 400 mg QD): 1/21 | Blister: Affected/At Risk (%) (Cohort 3 400 mg QD): (4.76%) | Blood alkaline phosphatase increased: # Events (Cohort 3 400 mg QD): 0 | Blood alkaline phosphatase increased: Affected/At Risk (Cohort 3 400 mg QD): 0/21 | Blood alkaline phosphatase increased: Affected/At Risk (%) (Cohort 3 400 mg QD): (0%) | Blood chloride decreased: # Events (Cohort 3 400 mg QD): 0 | Blood chloride decreased: Affected/At Risk (Cohort 3 400 mg QD): 0/21 | Blood chloride decreased: Affected/At Risk (%) (Cohort 3 400 mg QD): (0%) | Blood cholesterol increased: # Events (Cohort 3 400 mg QD): 1 | Blood cholesterol increased: Affected/At Risk (Cohort 3 400 mg QD): 1/21 | Blood cholesterol increased: Affected/At Risk (%) (Cohort 3 400 mg QD): (4.76%) | Blood creatine increased: # Events (Cohort 3 400 mg QD): 0 | Blood creatine increased: Affected/At Risk (Cohort 3 400 mg QD): 0/21 | Blood creatine increased: Affected/At Risk (%) (Cohort 3 400 mg QD): (0%) | Blood creatine phosphokinase increased: # Events (Cohort 3 400 mg QD): 0 | Blood creatine phosphokinase increased: Affected/At Risk (Cohort 3 400 mg QD): 0/21 | Blood creatine phosphokinase increased: Affected/At Risk (%) (Cohort 3 400 mg QD): (0%) | Blood creatinine increased: # Events (Cohort 3 400 mg QD): 2 | Blood creatinine increased: Affected/At Risk (Cohort 3 400 mg QD): 2/21 | Blood creatinine increased: Affected/At Risk (%) (Cohort 3 400 mg QD): (9.52%)
